The subject of experiment [1] is HepG2 (human hepatocellular carcinoma). Put plainly: MTT assay, inhibition of HepG2 cell proliferation. It counts as cell-based. As for the experimental part:
Preliminary in vitro screening results of the title compounds for antitumor activity against HepG2 (human hepatocellular carcinoma) and human normal hepatocytes (LO2) were determined by MTT assay (thiazolyl blue salt colorimetry) (see Figure 1 and Figure 2). […]
All analyses were carried out with SPSS 19.0 software (SPSS, Chicago, IL, USA). […]
The measurement data material of the experimental were described by x±s. Two samples were compared with the t test. The difference was significant statistically (p < 0.05).
MTT assay detect cell proliferation
MTT assay was used to determine the inhibitory effect on the proliferation of HepG2 cells of levopimaric acid. Compound 4 and levopimaric acid were combined with three groups below. The cells in the logarithmic growth phase were inoculated into 96-well culture plates at 3.5×10^3 cells/well, 0.2 ml per well, and incubated for 72 h with different concentrations of levopimaric acid. Then, we continually cultured it for 4 h after mixing fresh MTT working solution 20 μL (final concentration was 0.5 mg/mL), and carefully discarded the supernatant, added […] of DMSO per well and shook up. The absorbance (A) at the wavelength of 490 nm was measured by a microplate reader. The cell proliferation inhibition rate was calculated according to the following formula=[(negative control group A value - blank group A value) - (experimental group A value - blank group A value)]/ (Negative control group A value - blank group A value) × 100%.
Table S1 Compound 4 and levopimaric acid anti-HepG2 by single drug.
Concentration 4 Concentration Levopimaric acid
/μM Inhibitory rate/% Inhibitory rate/% /μM […]
Detection of cell proliferation by MTT
MTT assay was used to determine the inhibitory effect of the sample on the proliferation of HepG2 cells. The tumor cells of logarithmic growth stage were inoculated with 3.5×10^3/well in 96 well culture plate. 0.2 ml/pore system was cultured for 72 h with different concentrations of samples. Then 20 μL (final concentration 0.5 mg/mL) of MTT were added to each pore for 4 h. The supernatant was carefully adsorbed, and 0.15 mL DMSO was added to each pore, and oscillatory mixing was carried out. The absorbance (A) value at 490 nm wavelength was measured by enzyme labeling instrument.
The inhibition rate of cell proliferation was calculated as follows: [(A value of negative control group - A value of blank group) - (A value of experimental group A value of blank group)]/(negative pair […]
(§1) Firstly, sucked out the original medium when the cell coverage in the culture bottle had reached 80% ~ 90%. Secondly, added appropriate trypsin (0.25%) to digest the cells for 1~2 min until they became round. Mixed the equal volume of serum-containing medium to terminate the digestion.
Thirdly, use pipette to percuss cells and make them suspend. Then, sucked the cells into a 15 mL centrifuge tube and centrifuge them for 5 min. At last, dropped the supernatant, add 1~2 mL medium to suspend the cells, and cultivated them in the culture bottle.
The first step was to add suitable trypsin digestion cells and collected the cell suspension.
Centrifuged the suspension at 1000 rpm for 5 min in the tube, and then abandoned the supernatant.
Secondly, added cryoprotectant to the cell sediment and mixed them lightly until the cell density was 1×106~1×10^7/ml. Later, divided them into 1~1.5 ml per tube, tightened the cap and made a mark on surface including the cell code and the freezing date. In the end, cooled the cells in following order: room temperature→ 4℃ (20 min) → the freezer (30 min) → low temperature refrigerator (-30℃ for 1 h) →gaseous nitrogen (30 min) →the liquid nitrogen.
(§2) Cell proliferation measured by MTT
First of all, digested the cells and counted them. Added 100 μL cell suspension (3×10^4 /ml) into each hole of the 96 holes cell culture plate. Secondly, placed the 96 holes cell culture plate in a 5% CO2 culture box for 24 h at 37℃. Then, used the medium to dilute the drug into the desired working fluid […]
Background: Formazan colour is commonly taken as a measure of viable cells.

Experiment [2] relates to human normal hepatocytes (LO2). Put plainly: MTT assay, inhibition (toxicity) of LO2 cell proliferation. Type of experiment: cell-based. The note with it: Hepatocyte, 72 h, read-out: inhibitory activity against LO2, IC50. As for the experimental part:
Preliminary in vitro screening results of the title compounds for antitumor activity against HepG2 (human hepatocellular carcinoma) and human normal hepatocytes (LO2) were determined by MTT assay (thiazolyl blue salt colorimetry) (see Figure 1 and Figure 2).
as §1
Thirdly, use pipette to percuss cells and make them suspend. Then, sucked the cells into a 15 mL centrifuge tube and centrifuge them for 5 min. At last, dropped the supernatant, add 1~2 mL medium to suspend the cells, and cultivated them in the culture bottle. […]
as §2
First of all, digested the cells and counted them. Added 100 μL cell suspension (3×10^4 /ml) into each hole of the 96 holes cell culture plate. Secondly, placed the 96 holes cell culture plate in a 5% CO2 culture box for 24 h at 37℃. Then, used the medium to dilute the drug into the desired working fluid concentration, added 100 μL per hole to the corresponding drug medium, and established a negative control group as well as a positive control group (paclitaxel, 20 ug/ml). Next, placed 96 holes cell culture plate at 37℃ and cultivated the cells in a 5% CO2 incubator for 72 h. After treating 96 holes board with MTT staining, estimated the OD value: a. Added 20 μL MTT (5 mg/ml) per hole, and cultivated cells in the box for 4 h. b. Discarded the supernatant, added 150 μL DMSO in each hole, and mixed them gently after treatment with shaker for 10 min. c. Under 490nm ultraviolet wavelength, read the OD value from ELISA.
Finally, figured up the inhibition rate of each group
*The inhibition rate (%) = (negative control group OD value - experimental group OD value) / negative control group OD value ×100%. […]
The next day, joined the corresponding drug-containing medium after the cells adhered. And established the negative control group at the same time. After 72 h, use 0.25% pancreatin (not contain EDTA) to digest the cells. Thirdly, applied PBS to scrub the cells (centrifuge them at 2000 rpm for 5min), and collected 5×10^5 cells. Then, used a volume fraction of 70% ethanol to fix the single cell suspension for 2 h (or overnight), and stored it at 4℃. Before washing, employed PBS to remove the fixative solution (if needed, filter cell suspension through 200 mesh). Added […] RNase A, and made it in water bath at 37℃ for 30 min. Later, placed it at 4℃ for 30 min without light. […]
Detection of apoptosis by Annexin-V FITC/PI double staining
Firstly, inoculated the logarithmic growth cells into the six-hole plate. […]

Another experiment relates to LO2. The arrangement: method as in earlier work. The note with it: LO2, 24 h; cited from earlier work.
The mark [3] stands for this setting: Homo sapiens, HepG2, 72 h, 72 h, MTT, read-out: inhibitory activity against HepG2, IC50.

pIC50: −log10 of the molar value. ≈ marks a conversion by molar mass, not a printed value. Where two headings read alike, the source gives them in different places. A value given as a limit tells only on which side of the number the result lay.

As to `C/C=C\C=C\C/C=C\CCCCCCCc1cccc(O)c1O` [Compound 1, triene urushiol], the pIC50 (usually the IC50 on a negative log10 scale, so that one unit is a factor of ten) in experiment [1] (Homo sapiens, HepG2, 72 h, read-out: inhibitory activity against HepG2, IC50, 72 h, MTT) is more than 4.30; in experiment [1] (read-out: inhibitory activity against HepG2, IC50, 72 h, MTT) it was 4.54; in experiment [2], 4.18.
On to `CC(C)C1=CC[C@H]2C(=C1)CC[C@@H]1[C@]2(C)CCC[C@@]1(C)C(=O)O` [Compound 5, Levopimaric Acid], for which the values for the pIC50 in experiment [1] (setting [3]) and in experiment [2] were 4.40 and less than 3.70, respectively. The inhibition at 0.585 µM in experiment [1] (Homo sapiens, HepG2, 0.585 μM, 72 h, read-out: Inhibitory rate/%, anti-HepG2 by single drug) came to 4.12%. In experiment [1] (Homo sapiens, HepG2, 1.171 μM, 72 h, read-out: Inhibitory rate/%, anti-HepG2 by single drug), the inhibition at 1.171 µM was 5.45%. The inhibition at 2.343 µM in experiment [1] (Homo sapiens, HepG2, 2.343 μM, 72 h, read-out: Inhibitory rate/%, anti-HepG2 by single drug) worked out at 9.45%. For the same compound, the inhibition at 4.687 µM in experiment [1] (Homo sapiens, HepG2, 4.687 μM, 72 h, read-out: Inhibitory rate/%, anti-HepG2 by single drug) was found to be 13.8%. Besides, in experiment [1] (Homo sapiens, HepG2, 9.375 μM, 72 h, read-out: Inhibitory rate/%, anti-HepG2 by single drug), the inhibition at 9.375 µM was 32.1%. Also, in experiment [1] (Homo sapiens, HepG2, 18.75 μM, 72 h, read-out: Inhibitory rate/%, anti-HepG2 by single drug), the inhibition at 18.75 µM is 44.6%. Besides, the inhibition at 37.5 µM in experiment [1] (Homo sapiens, HepG2, 37.5 μM, 72 h, read-out: Inhibitory rate/%, anti-HepG2 by single drug) was found to be 47.2%. Also, in experiment [1] (Homo sapiens, HepG2, 75 μM, 72 h, read-out: Inhibitory rate/%, anti-HepG2 by single drug), the inhibition at 75 µM is 73.4%. In addition, the inhibition at 150 µM in experiment [1] (Homo sapiens, HepG2, 150 μM, 72 h, read-out: Inhibitory rate/%, anti-HepG2 by single drug) was found to be 91.5%.
In the case of `CC1C=CC(C/C=C\CCCCCCCc2cccc(O)c2O)C2(F)C(=O)OC(=O)C12F` (stereo not shown) [Compound 15], the pIC50 in experiment [1] (setting [3]) was 4.53; in experiment [2], less than 3.70.
Take `CC1C=CC(C/C=C\CCCCCCCc2cccc(O)c2O)C2(Cl)C(=O)OC(=O)C12Cl` (stereo not shown) [Compound 16]: the pIC50 in experiment [1] (Homo sapiens, HepG2, 72 h, MTT, read-out: inhibitory activity against HepG2, IC50) is 4.62; in experiment [2], less than 3.70.
With `CC(=O)O[C@H]1C(=O)[C@@]2(C)[C@H]([C@H](OC(=O)c3ccccc3)[C@]3(O)C[C@H](OC(=O)[C@H](O)[C@@H](NC(=O)c4ccccc4)c4ccccc4)C(C)=C1C3(C)C)[C@]1(OC(C)=O)CO[C@@H]1C[C@@H]2O` [paclitaxel], the “IC50 on LO2” value in the experiment on LO2 is 28.5 µg/mL (≈ 33.4 µM).

Values taken from paper PMC6214004, “Novel C15 Triene Triazole, D-A Derivatives Anti-HepG2, and as HDAC2 Inhibitors: A Synergy Study” (International Journal of Molecular Sciences, 2018).
